Results taken from patent US8946234B2, “Halogen-substituted compounds” (Bayer CropScience AG, priority 2008, dated 2015).

Experiment: physchem
Format: physicochemical
Conditions: not given
Experimental: ^a) Note regarding the determination of the log P values and mass detection: The log P values given were determined in accordance with EEC Directive 79/831 Annex V.A8 by HPLC (High Performance Liquid Chromatography) on a phase inversion column (C18). Agilent 1100 LC system; 50*4.6 Zorbax Eclipse Plus C18 1.8 micron; eluent A: acetonitrile (0.1% formic acid); eluent B: water (0.09% formic acid); linear gradient from 10% acetonitrile to 95% acetonitrile in 4.25 min, then 95% acetonitrile for a further 1.25 min; oven temperature 55° C.; flow: 2.0 ml/min. The mass detection is carried out via an Agilend MSD system.

| SMILES | logP |
| --- | --- |
| Cn1nc(C(F)F)c(C(F)(F)F)c1C(=O)Nc1ccc(Cl)c(C(=O)NCC=CCl)c1 [Ik-232] | 2.92^a) |
| Cn1nc(C(F)(F)C(F)(F)F)cc1C(=O)Nc1ccc(Cl)c(C(=O)NC2CC2)c1 [Ik-17] | 2.94^a) |
| O=C(NC1CC1)c1cc(NC(=O)c2cnc(C(F)(F)C(F)(F)F)nc2C2CC2)ccc1Cl [Ib-30] | 3.28^a) |
| Cn1nc(C(F)(F)F)c(Br)c1C(=O)Nc1ccc(Cl)c(C(=O)NC2CC2F)c1 (centres unmarked) [Ik-159] | 2.82^a) |
| Cn1nc(-c2ccc(C(F)(F)F)cc2)c(Br)c1C(=O)Nc1ccc(Cl)c(C(=O)NC2CC2)c1 [Ik-249] | 3.63^a) |
| CN(C)C(=O)COC(=O)c1cc(NC(=O)c2c(C(F)(F)F)c(C(F)(F)C(F)(F)F)nn2C)ccc1Cl [Ik-108] | 3.57^a) |
| Cn1nc(C(F)(F)C(F)(F)F)c(C(F)(F)F)c1C(=O)Nc1ccc(Cl)c(C(N)=O)c1 [Ik-163] | 2.83^a) |
| C=CCNC(=O)c1cc(NC(=O)c2c(C(F)(F)F)c(C(F)(F)C(F)(F)F)nn2C)ncc1Cl [Ik-316] | 3.38^a) |
| CC(NC(=O)c1cc(NC(=O)c2cnc(C(F)(F)C(F)(F)F)nc2C(F)(F)F)ccc1Cl)C1CC1 (centres unmarked) [Ib-37] | 3.76^a) |
| Cc1nc(C(F)(F)C(F)(F)F)ncc1C(=O)Nc1ccc(Cl)c(C(=O)NC2CC2)c1 [Ib-23] | 2.76^a) |
| COc1ccc(NC(=O)c2c(C(F)(F)F)c(C(F)(F)C(F)(F)F)nn2C)cc1C(=O)NC1CC1 [Ik-185] | 3.32^a) |
| Cn1nc(C(F)(F)C(F)(F)F)c(C(F)(F)F)c1C(=O)Nc1ccc(I)c(C(=O)NC2CC2)c1 [Ik-183] | 3.45^a) |
| Cc1nc(C(F)(F)C(F)(F)F)nc(C)c1C(=O)Nc1ccc(Cl)c(C(=O)NCC(F)(F)F)c1 [Ib-12] | 3.22^a) |
| Cn1nc(C(F)(F)C(F)(F)F)c(C(F)(F)F)c1C(=O)Nc1cc(C(=O)NCC(F)(F)F)c(Cl)cc1Cl [Ik-171] | 3.97^a) |
| Cn1nc(-c2ccc(OC(F)(F)F)cc2)c(Br)c1C(=O)Nc1ccc(Cl)c(C(=O)NCC(F)(F)F)c1 [Ik-255] | 4.15^a) |
| O=C(NCC=CCl)c1cc(NC(=O)c2ccc(C(F)(F)F)nc2Cl)ccc1Cl [Ir-10] | 2.86^a) |
| Cc1nc(C(F)(F)C(F)(F)F)nc(C)c1C(=O)Nc1ccc(Cl)c(C(=O)NC2CC2)c1 [Ib-8] | 2.82^a) |
| Cn1nc(C(F)(F)C(F)(F)F)c(C(F)(F)F)c1C(=O)Nc1cc(F)c(I)c(C(=O)NCC(F)(F)F)c1 [Ik-226] | 3.95^a) |
| Cn1nc(C(F)(F)C(F)(F)F)c(C(F)(F)F)c1C(=O)Nc1cc(Br)c(Br)c(C(=O)NCC(F)(F)F)c1 [Ik-209] | 4.18^a) |
| CC(Oc1cc(C(F)(F)F)c(C(=O)Nc2ccc(Cl)c(C(=O)NC3CC3)c2)cn1)C(F)(F)F (centres unmarked) [Ij-2] | 3.32^a) |
| CCn1nc(C(F)(F)C(F)(F)F)c(C(F)(F)F)c1C(=O)Nc1ccc(Cl)c(C(=O)NC2CC2)c1 [Ik-217] | 3.63^a) |
| Cn1nc(C(F)(F)F)c(Br)c1C(=O)Nc1ccc(Cl)c(C(=O)NC2CC2)c1 [Ik-21] | 2.75^a) |
| CC(C)NC(=O)c1cc(NC(=O)c2ccc(C(F)(F)F)nc2Cl)ccc1Cl [Ir-3] | 2.68^a) |
| Cn1nc(C(F)(F)F)c(I)c1C(=O)Nc1ccc(Cl)c(C(=O)NC2CC2)c1 [Ik-182] | 2.70^a) |

| SMILES | logP |
| --- | --- |
| CC#CC(C)(C)NC(=O)c1cc(NC(=O)c2c(C(F)(F)F)c(C(F)(F)C(F)(F)F)nn2C)ccc1Cl [Ik-81] | 4.03^a) |
| Cn1nc(C(F)(F)F)cc1C(=O)Nc1ccc(Cl)c(C(=O)NC2CC2)c1 [Ik-71] | 2.48^a) |
| Cn1nc(C2CC2)c(Br)c1C(=O)Nc1ccc(Cl)c(C(=O)NC2CC2)c1 [Ik-235] | 2.60^a) |
| Cn1nc(C(F)(F)C(F)(F)F)c(C(F)(F)F)c1C(=O)Nc1cc(C#N)c(Cl)c(C(=O)NC2CC2)c1 [Ik-187] | 3.40^a) |
| Cn1nc(C(F)(F)C(F)(F)F)c(C(F)(F)F)c1C(=O)Nc1cc(F)c(Cl)c(C(=O)NC2CC2)c1 [Ik-188] | 3.59^a) |
| CCN(CC)C(=O)COC(=O)c1cc(NC(=O)c2c(C(F)(F)F)c(C(F)(F)C(F)(F)F)nn2C)ccc1Cl [Ik-109] | 4.11^a) |
| CNC(=O)c1cc(NC(=O)c2c(C(F)(F)F)c(C(F)(F)C(F)(F)F)nn2C)ccc1Cl [Ik-85] | 3.04^a) |
| COCn1nc(C(F)(F)C(F)(F)F)c(C(F)(F)F)c1C(=O)Nc1ccc(Cl)c(C(=O)NC2CC2)c1 [Ik-219] | 3.50^a) |
| CC(C)CNC(=O)c1cc(NC(=O)c2c(C(F)(F)F)c(C(F)(F)C(F)(F)F)nn2C)ccc1Cl [Ik-92] | 3.90^a) |
| CCc1c(C(F)(F)C(F)(F)F)nn(C)c1C(=O)Nc1cccc(C(=O)NC2CC2)c1 [Ik-263] | 3.05^a) |
| CCC(C)NC(=O)c1cc(NC(=O)c2c(C(F)(F)F)c(C(F)(F)C(F)(F)F)nn2C)ccc1Cl (centres unmarked) [Ik-91] | 3.87^a) |
| O=C(NC1CC1)c1cc(NC(=O)c2cnc(OCC(F)(F)C(F)(F)F)cc2C(F)(F)F)ccc1Cl [Ij-3] | 3.44^a) |
| Cn1nc(OCC(F)(F)F)c(Br)c1C(=O)Nc1ccc(Cl)c(C(=O)NCC(F)(F)F)c1 [Ik-257] | 3.26^a) |
| Cn1nc(C(F)(F)C(F)(F)F)c(C(F)(F)F)c1C(=O)Nc1cc(Br)c(Br)c(C(=O)NC2CC2)c1 [Ik-207] | 3.84^a) |
| Cn1nc(C(F)(F)C(F)(F)C(F)(F)C(F)(F)F)cc1C(=O)Nc1ccc(Cl)c(C(=O)NC2CC2)c1 [Ik-266] | 3.74^a) |
| Cn1nc(C(F)(F)C(F)(F)F)c(C(F)(F)F)c1C(=O)Nc1ccc(OC(F)F)c(C(=O)NC2CC2)c1 [Ik-25] | 3.49^a) |
| CCn1nc(C(F)(F)C(F)(F)F)c(C(F)(F)F)c1C(=O)Nc1ccc(Cl)c(C(=O)NCC(F)(F)F)c1 [Ik-216] | 3.93^a) |
| Cn1nc(OCC(F)(F)F)c(Cl)c1C(=O)Nc1ccc(Cl)c(C(=O)NCC(F)(F)F)c1 [Ik-243] | 3.27^a) |
| O=C(NC1CC1)c1cc(NC(=O)c2cnc(C(F)(F)F)nc2C(F)(F)F)ccc1Cl [Ib-3] | 2.78^a) |
| Cn1nc(-c2ccc(Cl)cc2Cl)c(Br)c1C(=O)Nc1ccc(Cl)c(C(=O)NC2CC2)c1 [Ik-250] | 3.59^a) |
| CSc1c(Br)cc(NC(=O)c2c(C(F)(F)F)c(C(F)(F)C(F)(F)F)nn2C)cc1C(=O)NC1CC1 [Ik-198] | 3.87^a) |
| Cc1nc(C(F)(F)C(F)(F)F)ncc1C(=O)Nc1ccc(Cl)c(C(=O)NCc2ccccc2)c1 [Ib-26] | 3.43^a) |
| O=C(Nc1cc(Br)c(Cl)c(C(=O)NC2CC2)c1)c1cnc(C(F)(F)C(F)(F)F)nc1C(F)(F)F [Ib-36] | 3.62^a) |

Same assay, conditions: HPLC phase inversion (reversed-phase) C18 column, HPLC method a), eluent acetonitrile/water with formic acid; read-out: logP

| chromatographic logP | SMILES |
| --- | --- |
| 3.7 | COC(=O)c1cc(NC(=O)c2c(C(F)(F)F)c(C(F)(F)C(F)(F)F)nn2C)cnc1Cl [methyl 2-chloro-5-({[1-methyl-3-(pentafluoroethyl)-4-(trifluoromethyl)-1H-pyrazol-5-yl]carbonyl}amino)nicotinate] |
| 3.22 | Cn1nc(C(F)(F)C(F)(F)F)c(C(F)(F)F)c1C(=O)Nc1ccc(Cl)c(C(=O)O)c1 [Ik-2, 2-Chloro-5-({[1-methyl-3-(pentafluoroethyl)-4-(trifluoromethyl)-1H-pyrazol-5-yl]carbonyl}amino)benzoic acid] |
| 2.35 | O=C(NC1CC1)c1cc(NC(=O)c2cnc(Cl)cc2C(F)(F)F)ccc1Cl [2-chloro-N-[4-chloro-3-(cyclopropylcarbamoyl)phenyl]-4-(trifluoromethyl)pyridine-5-carboxamide] |

Continued, molecule first:

| SMILES | chromatographic logP |
| --- | --- |
| COC(=O)c1cc(N(C(=O)c2c(C(F)(F)F)c(C(F)(F)C(F)(F)F)nn2C)C(=O)c2c(C(F)(F)F)c(C(F)(F)C(F)(F)F)nn2C)ccc1Cl [Methyl 5-(bis{[1-methyl-3-(pentafluoroethyl)-4-(trifluoromethyl)-1H-pyrazol-5-yl]carbonyl}amino)-2-chlorobenzoate] | 5.85 |
| COC(=O)c1[nH]nc(C(F)(F)C(F)(F)F)c1C(F)(F)F [Methyl 3-(pentafluoroethyl)-4-(trifluoromethyl)-1H-pyrazole-5-carboxylate] | 3.02 |
| CCn1nc(C(F)(F)C(F)(F)F)c(C(F)(F)F)c1C(=O)O [1-Ethyl-3-(pentafluoroethyl)-4-(trifluoromethyl)-1H-pyrazole-5-carboxylic acid] | 2.18 |
| Cn1nc(C(F)(F)C(F)(F)F)cc1C(=O)O [1-Methyl-3-pentafluoroethyl-1H-pyrazole-5-carboxylic acid] | 2.08 |
| Cc1nc(C(F)(F)C(F)(F)F)nc(C)c1C(=O)O [4,6-Dimethyl-2-(pentafluoroethyl)pyrimidine-5-carboxylic acid] | 1.63 |
| Cn1ccc(C(F)(F)C(F)(F)F)n1 [1-Methyl-3-pentafluoroethyl-1H-pyrazole] | 2.29 |
| Cn1nc(C(F)(F)F)c(C(F)(F)F)c1C(=O)O [1-Methyl-3,4-bis(trifluoromethyl)-1H-pyrazole-5-carboxylic acid] | 1.47 |
| Cn1nc(C(F)(F)C(F)(F)F)c(C(F)(F)F)c1C(=O)Nc1cc(C(=O)O)c(Cl)cn1 [Ik-129, 5-Chloro-2-({[1-methyl-3-(pentafluoroethyl)-4-(trifluoromethyl)-1H-pyrazol-5-yl]carbonyl}amino)isonicotinic acid] | 2.82 |
| Cn1ccc(C(F)(F)OC(F)(F)OC(F)(F)F)n1 [3-{[Difluoro(trifluoromethoxy)methoxy](difluoro)methyl}-1-methyl-1H-pyrazole] | 3.79 |

Same assay, conditions: HPLC phase inversion (reversed-phase) C18 column, HPLC on C18 phase inversion column, method a); read-out: logP

| chromatographic logP | SMILES |
| --- | --- |
| 2.82 | Cn1nc(C(F)(F)C(F)(F)F)c(C(F)(F)F)c1C(=O)Nc1cc(C(=O)O)c(Cl)cn1 [Ik-129, 5-Chloro-2-({[1-methyl-3-(pentafluoroethyl)-4-(trifluoromethyl)-1H-pyrazol-5-yl]carbonyl}amino)isonicotinic acid] |

Same assay, conditions: HPLC phase inversion (reversed-phase) C18 column, HPLC, method a); read-out: logP

| chromatographic logP | SMILES |
| --- | --- |
| 3.22 | Cn1nc(C(F)(F)C(F)(F)F)c(C(F)(F)F)c1C(=O)Nc1ccc(Cl)c(C(=O)O)c1 [Ik-2, 2-Chloro-5-({[1-methyl-3-(pentafluoroethyl)-4-(trifluoromethyl)-1H-pyrazol-5-yl]carbonyl}amino)benzoic acid] |

Same assay, conditions: logP

| SMILES | chromatographic logP |
| --- | --- |
| Cn1nc(C(F)(F)OC(F)(F)OC(F)(F)F)cc1C(=O)O [3-{[Difluoro(trifluoromethoxy)methoxy](difluoro)methyl}-1-methyl-1H-pyrazole-5-carboxylic acid] | 3.38 |
